The term IC50 denotes the concentration that gives 50% inhibition. Read a low IC50 as inhibition by little substance.

We go through 24 compounds from patent US11524938B2, “Aromatic sulfonamide derivatives” (Bayer Pharma Aktiengesellschaft, priority 2016, dated 2022).

In the assay the target is T1, human P2X4 (Homo sapiens, UniProt Q99571).
T1 sequence (Q99571 1-388): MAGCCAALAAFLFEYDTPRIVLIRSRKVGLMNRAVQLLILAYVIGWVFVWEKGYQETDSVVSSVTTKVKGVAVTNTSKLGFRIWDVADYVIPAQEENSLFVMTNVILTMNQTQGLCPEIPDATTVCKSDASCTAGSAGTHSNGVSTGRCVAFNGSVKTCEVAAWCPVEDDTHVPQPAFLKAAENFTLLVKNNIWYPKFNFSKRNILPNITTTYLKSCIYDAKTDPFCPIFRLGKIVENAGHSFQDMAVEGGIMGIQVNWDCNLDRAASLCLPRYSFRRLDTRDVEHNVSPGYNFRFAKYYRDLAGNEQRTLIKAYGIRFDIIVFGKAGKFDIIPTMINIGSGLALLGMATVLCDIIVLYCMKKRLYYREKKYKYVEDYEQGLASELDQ
In words: Human P2X4 HEK Cell FLIPR Assay. Format: cell-based. The note with it: agonist Bz-ATP at EC80; for Emax: HEK293, HEK293 cells, percentage of maximal inhibition, read-out: Human P2X4 HEK Cells (FLIPR Assay) avg Efficacy [%]; for IC50: HEK293 cells, individual values listed where some fall outside detection range. In outline:
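HEK293 cells stably expressing human P2X4, Fluo8-AM loaded 30 min at 37° C, then compound 30 min at room temperature (0.5% DMSO, pH 7.4 buffer with 1.8 mM CaCl2). Bz-ATP at its daily-determined EC80 added; calcium fluorescence read over 120 sec; IC50 from peak RFU normalized to agonist control, triplicates.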

As to `CC(C)(O)c1cc(F)cc(-c2ccc(NC(=O)Cc3ccccc3Cl)cc2S(N)(=O)=O)c1` [Example 340, 2-(2-Chlorophenyl)-N-[3′-fluoro-5′-(2-hydroxypropan-2-yl)-2-sulfamoylbiphenyl-4-yl]acetamide], the Emax worked out at 89% and the IC50 was 34 nM.
With `COc1cncc(-c2ccc(NC(=O)Cc3ccccc3Cl)cc2S(N)(=O)=O)c1` [Example 341, 2-(2-Chlorophenyl)-N-[4-(5-methoxypyridin-3-yl)-3-sulfamoylphenyl]acetamide], the Emax is 86% and the IC50 was 41 nM.
In the case of `CC(C)(O)c1cccc(-c2ccc(NC(=O)Cc3ccccc3Cl)cc2S(N)(=O)=O)c1` [Example 342, 2-(2-Chlorophenyl)-N-[3′-(2-hydroxypropan-2-yl)-2-sulfamoylbiphenyl-4-yl]acetamide], the Emax amounted to 101% and the IC50 is 41 nM.
In the case of `CC(C)n1cc(-c2ccc(NC(=O)Cc3ccccc3F)cc2S(N)(=O)=O)cn1` [Example 343, 2-(2-Fluorophenyl)-N-{4-[1-(propan-2-yl)-1H-pyrazol-4-yl]-3-sulfamoylphenyl}-acetamide], the Emax amounted to 101% and the IC50 was 42 nM.
`NS(=O)(=O)c1cc(NC(=O)Cc2ccccc2F)ccc1-c1cnn(C2CC2)c1` [Example 344, N-[4-(1-Cyclopropyl-1H-pyrazol-4-yl)-3-sulfamoylphenyl]-2-(2-fluorophenyl)-acetamide]: the Emax came to 102% and the IC50 stood at 44 nM.
Turning to `NS(=O)(=O)c1cc(NC(=O)Cc2ccccc2Cl)ccc1-c1cnn(C2CCCCO2)c1` (stereo not shown) [Example 345, 2-(2-Chlorophenyl)-N-{3-sulfamoyl-4-[1-(tetrahydro-2H-pyran-2-yl)-1H-pyrazol-4-yl]phenyl}acetamide], the Emax was determined as 93% and the IC50 is 46 nM.
For the compound `CC(C)(C)n1cc(-c2ccc(NC(=O)Cc3ccccc3F)cc2S(N)(=O)=O)cn1` [Example 346, N-[4-(1-tert-Butyl-1H-pyrazol-4-yl)-3-sulfamoylphenyl]-2-(2-fluorophenyl)acetamide], the Emax was 105% and the IC50 is 46 nM.
In the case of `CC(C)(O)c1cc(F)cc(-c2ccc(NC(=O)Cc3ccccc3F)cc2S(N)(=O)=O)c1` [Example 347, N-[3′-Fluoro-5′-(2-hydroxypropan-2-yl)-2-sulfamoylbiphenyl-4-yl]-2-(2-fluorophenyl)acetamide], the Emax was 89% and the IC50 worked out at 85 nM.
With `NS(=O)(=O)c1cc(NC(=O)Cc2ccccc2F)ccc1-c1cnn(C2CCCC2)c1` [Example 348, N-[4-(1-Cyclopentyl-1H-pyrazol-4-yl)-3-sulfamoylphenyl]-2-(2-fluorophenyl)-acetamide], the Emax is 96% and the 50% inhibitory concentration (IC50) came out at 47 nM.
As to `NS(=O)(=O)c1cc(NC(=O)Cc2ccccc2Cl)ccc1-c1cnn(C2CC2)c1` [Example 349, 2-(2-Chlorophenyl)-N-[4-(1-cyclopropyl-1H-pyrazol-4-yl)-3-sulfamoylphenyl]acetamide], the Emax is 99%.
As to `COCCn1cc(-c2ccc(NC(=O)Cc3c(F)cccc3Cl)cc2S(N)(=O)=O)cn1` [Example 350, 2-(2-Chloro-6-fluorophenyl)-N-{4-[1-(2-methoxyethyl)-1H-pyrazol-4-yl]-3-sulfamoylphenyl}acetamide], the Emax amounted to 87% and the IC50 amounted to 49 nM.
As to `Cc1cc(-c2ccc(NC(=O)Cc3ccccc3Cl)cc2S(N)(=O)=O)n(C)n1` [Example 351, 2-(2-Chlorophenyl)-N-[4-(1,3-dimethyl-1H-pyrazol-5-yl)-3-sulfamoylphenyl]acetamide], the Emax came to 88% and the IC50 is 51 nM.
As for `NS(=O)(=O)c1cc(NC(=O)Cc2ccccc2Cl)ccc1-c1ccc(Cl)cc1` [Example 352, 2-(2-Chlorophenyl)-N-(4′-chloro-2-sulfamoylbiphenyl-4-yl)acetamide], the Emax amounted to 91% and the IC50 was 54 nM.
`Cn1nc(C(F)(F)F)cc1-c1ccc(NC(=O)Cc2ccccc2Cl)cc1S(N)(=O)=O` [Example 353, 2-(2-Chlorophenyl)-N-{4-[1-methyl-3-(trifluoromethyl)-1H-pyrazol-5-yl]-3-sulfamoylphenyl}acetamide]: the Emax was 87% and the IC50 was found to be 57 nM.
With `NS(=O)(=O)c1cc(NC(=O)Cc2ccccc2Cl)ccc1-c1cccnc1` [Example 354, 2-(2-Chlorophenyl)-N-[4-(pyridin-3-yl)-3-sulfamoylphenyl]acetamide], the Emax stood at 92% and the half-inhibitory concentration (IC50) is 60 nM.
Take `Cn1cc(-c2ccc(NC(=O)Cc3ccccc3Cl)cc2S(N)(=O)=O)c(C(F)(F)F)n1` [Example 355, 2-(2-Chlorophenyl)-N-{4-[1-methyl-3-(trifluoromethyl)-1H-pyrazol-4-yl]-3-sulfamoylphenyl}acetamide]: the Emax was 76% and the IC50 was 62 nM.
As to `NS(=O)(=O)c1cc(NC(=O)Cc2ccccc2Cl)ccc1-c1cccc(Cl)c1` [Example 356, 2-(2-Chlorophenyl)-N-(3′-chloro-2-sulfamoylbiphenyl-4-yl)acetamide], the Emax stood at 96% and the IC50 came out at 63 nM.
For the compound `NS(=O)(=O)c1cc(NC(=O)Cc2ccccc2Cl)ccc1-c1cnn(CC2CC2(Cl)Cl)c1` (stereo not shown) [Example 357, 2-(2-Chlorophenyl)-N-(4-{1-[(2,2-dichlorocyclopropyl)methyl]-1H-pyrazol-4-yl}-3-sulfamoylphenyl)acetamide], the Emax was found to be 87% and the IC50 amounted to 71 nM.
On the same counts, the results for `Cc1nn(C)cc1-c1ccc(NC(=O)Cc2ccccc2Cl)cc1S(N)(=O)=O` [Example 358, 2-(2-Chlorophenyl)-N-[4-(1,3-dimethyl-1H-pyrazol-4-yl)-3-sulfamoylphenyl]acetamide] are 88% and 74 nM.
As to `CC(C)n1cc(-c2ccc(NC(=O)Cc3ccccc3Cl)cc2S(N)(=O)=O)cn1` [Example 359, 2-(2-Chlorophenyl)-N-{4-[1-(propan-2-yl)-1H-pyrazol-4-yl]-3-sulfamoylphenyl}-acetamide], the Emax turned out to be 84% and the IC50 was found to be 77 nM.
`Cn1cc(-c2ccc(NC(=O)Cc3ccccc3Cl)cc2S(N)(=O)=O)cn1` [Example 360, 2-(2-Chlorophenyl)-N-[4-(1-methyl-1H-pyrazol-4-yl)-3-sulfamoylphenyl]acetamide]: the Emax came to 93%.
For `CC(C)(C)C(O)Cn1cc(-c2ccc(NC(=O)Cc3ccccc3Cl)cc2S(N)(=O)=O)cn1` (stereo not shown) [Example 361, 2-(2-Chlorophenyl)-N-{4-[1-(2-hydroxy-3,3-dimethylbutyl)-1H-pyrazol-4-yl]-3-sulfamoylphenyl}acetamide], the Emax stood at 83% and the IC50 amounted to 97 nM.
As for `NS(=O)(=O)c1cc(NC(=O)Cc2ccccc2F)ccc1-c1cncc(F)c1` [Example 362, 2-(2-Fluorophenyl)-N-[4-(5-fluoropyridin-3-yl)-3-sulfamoylphenyl]acetamide], the Emax worked out at 78% and the IC50 was found to be 102 nM.
Take `Cc1c(-c2ccc(NC(=O)Cc3ccccc3Cl)cc2S(N)(=O)=O)cnn1-c1ccccc1` [Example 363, 2-(2-Chlorophenyl)-N-[4-(5-methyl-1-phenyl-1H-pyrazol-4-yl)-3-sulfamoylphenyl]-acetamide]: the Emax is 110% and the IC50 worked out at 108 nM.
